{"source": "patent US4434151A", "about": "“Bifunctional chelating agents” (Medi-Physics, Inc., priority 1982, dated 1984)", "key": {"[1]": {"assay": "Gamma camera imaging / regional areas of interest in rabbits after intravenous administration", "assay_type": "in vivo, rabbits (New Zealand White)", "conditions": "i.v.; for Gamma camera count densities (RAI): rabbits", "description": "(§1) The ^99m Tc complex used for the animal studies was prepared in Example 6 following both methods of reduction, stannous chloride or dithionite. The ^99m Tc-MGHA complexes labeled by either reduction method were tested in animals. The mass concentrations of the ^99m Tc complex administered to test animals were approximately 0.04 mg/kg body weight for rabbits and 13.0 mg/kg body weight for mice. The radioactivity administered to rabbits and mice were about 0.5 mCi and 1.5 mCi respectively. The pH of the injectant solution was approximately 5 to 6.\nNonanesthetized and nonfasted male rabbits (New Zealand White) weighing 3.0-3.5 kg were restrained in dorsal recumbancy approximately 2-3 cm from the face of the gamma camera. After intravenous administration of 0.1 mL of the ^99m Tc-labeled complex solution in the marginal ear vein, anterior images were stored by a dedicated computer during injection, and 5, 10, 15, 20 and 30 minutes following administration.\nThe ^99m Tc-complex prepared via a dithionate reduction of Example 6 was administered to male albino rabbits weighing 3.0-3.5 kg. The drug was injected into the marginal ear vein. The mass of drug administered was equivalent to ~0.04 mg/kg while the volume injected was 0.1 mL. The administered dose was ~0.5 mCi. Each test animal was restrained in dorsal recumbancy approximately 2-3 cm from the face of the gamma camera. Immediately after injection, 100-500 k counts were obtained from the gamma camera and stored on floppy disc. The computer controlled the maximum number of counts that could be stored per image. Sequential images were obtained and stored on disc at 5, 10, 15, 20 and 30 minutes following administration.\nAfter all images were stored, quantitative image analysis was utilized to obtain count densities in regional areas of interest (RAI). The RAIs were delineated as distinct anatomical structures. Three distinct areas were observed.\nA ^99m Tc-complex prepared via a stannous chloride reduction of Example 6 was administtered to male albino rabbits weighing 3.0-3.5 kg. […]"}, "[2]": {"assay": "Organ uptake (biodistribution) of 99mTc activity in mice after intravenous administration", "assay_type": "in vivo", "conditions": "i.v.; for Organ uptake of 99mTc, Carcass / Organ uptake of 99mTc, Intestines / Organ uptake of 99mTc, Kidney / Organ uptake of 99mTc, Liver / Organ uptake of 99mTc, Lung / Organ uptake of 99mTc, Stomach / Organ uptake of 99mTc, Tail: average of four animals ± SD", "description": "as §1\nNonfasted male mice (1CR strain) weighing 20-24 grams were administered in the tail vein with 0.2 mL of a ^99m Tc-complex solution. At 15, 30, 60 minutes post administration groups of four animals were sacrificed by cervical dislocation and selected organs removed for ^99m Tc assay in a gross ionization counting chamber. The percentage of the injected dose corrected for ^99m Tc decay was calculated for the various organs at each sacrifice time.\nA ^99m Tc-MGHA complex prepared via a dithionite reduction of ^99m TcO4^- of Example 6 was administered to female albino mice weighing 20-24 gm. The test drug was administered through the lateral tail vein at a mass dose of approximately 13.0 mg/kg in a volume of 0.2 mL. The corresponding radioactive dose administered to each animal was 1.5 mCi. After injection, groups of four animals were sacrificed (cervical dislocation) at 15, 30 and 60 minutes. The liver, kidney, lung, heart, stomach and intestines (small and large) were removed and assayed for ^99m Tc activity in a gross ionization counting chamber. Also, the tails and remaining carcasses were individually assayed for ^99m Tc activity.\nKnowing the amount of ^99m Tc activity administered (assaying for ^99m Tc in the syringe before and after injection) and the amount assayed in the various organs, the percentage of injected dose (% ID) was calculated as: [formula] All activities (Ci) were initially corrected for ^99m Tc decay back to a fixed starting time using the standard first order differential equation for decay correction (see below): […]\nwhere N0 and N1 are initial and final activities (Ci) respectively. The half-life (T1/2) for ^99m Tc decay is 6.02 hr. The value of t is the elapsed time (hrs.) for the correction.\nThe results of ^99m Tc uptake in various organs and tissues in mice administered ^99m Tc-MGHA labeled via a dithionite reduction is given in Table 1.\nA ^99m Tc-MGHA complex prepared via a stannous chloride reduction of 99mTcO.sbsb.4^- of Example 6 was administered to female albino mice weighing 20-24 gm. The same methods and procedures given in Example 19 were used to calculate the % ID for each organ."}, "[3]": {"conditions": "mice, dithionite reduction, 15 min."}, "[4]": {"conditions": "mice, dithionite reduction, 30 min."}, "[5]": {"conditions": "mice, dithionite reduction, 60 min."}}}
{"smiles": "CNC(=O)C1CC[S][99Tc-]23(=[O])[S]CC[N]2CC(=O)[N]13", "note": "[^99m Tc-MGHA, [2-[[1-(2mercaptoethyl)-2-(methylamino)-2-oxoethyl]-N-(2-mercaptoethyl)glycinato-N,N',S,S']oxotechnetate-99m]", "values": [{"measurement": "Distinct areas observed in quantitative image analysis (RAI)", "setting": "[1]; male albino rabbits, dithionite reduction, ~0.5 mCi, up to 30 minutes", "result": "The left and right kidneys and the bladder were clearly defined"}, {"measurement": "Gamma camera count densities (RAI)", "setting": "[1]; SnCl2 reduction method", "result": "significant count densities in regions where the right and left kidneys were visualized"}, {"measurement": "Gamma camera count densities (RAI)", "setting": "[1]; dithionite reduction method", "result": "significant count densities in regions where the right and left kidneys were visualized"}, {"measurement": "Excretion of activity from the body", "setting": "[2]; mice", "result": "rapid excretion of activity from the body"}, {"measurement": "Total remaining activity (% injected dose)", "setting": "[2]; mice, 30 minutes", "result": "approximately one-half of the injected dose"}, {"measurement": "Organ uptake of 99mTc, Carcass", "setting": "[2]; mice, SnCl2 reduction, 15 min.", "result": "17.4 ± 2.8", "unit": "% Injected Dose"}, {"measurement": "Organ uptake of 99mTc, Intestines", "setting": "[2]; mice, SnCl2 reduction, 15 min.", "result": "28.7 ± 6.1", "unit": "% Injected Dose"}, {"measurement": "Organ uptake of 99mTc, Kidney", "setting": "[2]; mice, SnCl2 reduction, 15 min.", "result": "3.3 ± .9 % Injected Dose"}, {"measurement": "Organ uptake of 99mTc, Liver", "setting": "[2]; mice, SnCl2 reduction, 15 min.", "result": "13.3 ± 5.4", "unit": "% Injected Dose"}, {"measurement": "Organ uptake of 99mTc, Lung", "setting": "[2]; mice, SnCl2 reduction, 15 min.", "result": ".9 ± .4 % Injected Dose"}, {"measurement": "Organ uptake of 99mTc, Stomach", "setting": "[2]; mice, SnCl2 reduction, 15 min.", "result": ".3 ± .4 % Injected Dose"}, {"measurement": "Organ uptake of 99mTc, Tail", "setting": "[2]; mice, SnCl2 reduction, 15 min.", "result": "1.4 ± .7 % Injected Dose"}, {"measurement": "Organ uptake of 99mTc, Carcass", "setting": "[2]; mice, SnCl2 reduction, 30 min.", "result": "5.7 ± 2.9", "unit": "% Injected Dose"}, {"measurement": "Organ uptake of 99mTc, Intestines", "setting": "[2]; mice, SnCl2 reduction, 30 min.", "result": "27.3 ± 7.0", "unit": "% Injected Dose"}, {"measurement": "Organ uptake of 99mTc, Kidney", "setting": "[2]; mice, SnCl2 reduction, 30 min.", "result": "1.6 ± .4 % Injected Dose"}, {"measurement": "Organ uptake of 99mTc, Liver", "setting": "[2]; mice, SnCl2 reduction, 30 min.", "result": "6.1 ± .9 % Injected Dose"}, {"measurement": "Organ uptake of 99mTc, Lung", "setting": "[2]; mice, SnCl2 reduction, 30 min.", "result": ".2 ± .2 % Injected Dose"}, {"measurement": "Organ uptake of 99mTc, Stomach", "setting": "[2]; mice, SnCl2 reduction, 30 min.", "result": ".6 ± .9 % Injected Dose"}, {"measurement": "Organ uptake of 99mTc, Tail", "setting": "[2]; mice, SnCl2 reduction, 30 min.", "result": ".14 ± .2 % Injected Dose"}, {"measurement": "Organ uptake of 99mTc, Carcass", "setting": "[2]; mice, SnCl2 reduction, 60 min.", "result": "12.4 ± 5.1", "unit": "% Injected Dose"}, {"measurement": "Organ uptake of 99mTc, Intestines", "setting": "[2]; mice, SnCl2 reduction, 60 min.", "result": "29.3 ± 10.4", "unit": "% Injected Dose"}, {"measurement": "Organ uptake of 99mTc, Kidney", "setting": "[2]; mice, SnCl2 reduction, 60 min.", "result": "2.3 ± .8 % Injected Dose"}, {"measurement": "Organ uptake of 99mTc, Liver", "setting": "[2]; mice, SnCl2 reduction, 60 min.", "result": "7.7 ± 2.0", "unit": "% Injected Dose"}, {"measurement": "Organ uptake of 99mTc, Lung", "setting": "[2]; mice, SnCl2 reduction, 60 min.", "result": ".6 ± .3 % Injected Dose"}, {"measurement": "Organ uptake of 99mTc, Stomach", "setting": "[2]; mice, SnCl2 reduction, 60 min.", "result": ".1 ± .2 % Injected Dose"}, {"measurement": "Organ uptake of 99mTc, Tail", "setting": "[2]; mice, SnCl2 reduction, 60 min.", "result": ".7 ± .3 % Injected Dose"}, {"measurement": "Kidney uptake of activity over time", "setting": "[2]; mice, at the various time intervals examined", "result": "declining at the various time intervals examined"}, {"measurement": "Organ uptake of 99mTc, Carcass", "setting": "[2]; [3]", "result": "21.9 ± 2.9", "unit": "% Injected Dose"}, {"measurement": "Organ uptake of 99mTc, Intestines", "setting": "[2]; [3]", "result": "16.8 ± 3.0", "unit": "% Injected Dose"}, {"measurement": "Organ uptake of 99mTc, Kidney", "setting": "[2]; [3]", "result": "3.1 ± .6 % Injected Dose"}, {"measurement": "Organ uptake of 99mTc, Liver", "setting": "[2]; [3]", "result": "11.3 ± 1.0", "unit": "% Injected Dose"}, {"measurement": "Organ uptake of 99mTc, Lung", "setting": "[2]; [3]", "result": ".9 ± .2 % Injected Dose"}, {"measurement": "Organ uptake of 99mTc, Stomach", "setting": "[2]; [3]", "result": ".3 ± .01 % Injected Dose"}, {"measurement": "Organ uptake of 99mTc, Tail", "setting": "[2]; [3]", "result": "1.7 ± 1.0", "unit": "% Injected Dose"}, {"measurement": "Organ uptake of 99mTc, Carcass", "setting": "[2]; [4]", "result": "13.4 ± 5.3", "unit": "% Injected Dose"}, {"measurement": "Organ uptake of 99mTc, Intestines", "setting": "[2]; [4]", "result": "20.5 ± 2.0", "unit": "% Injected Dose"}, {"measurement": "Organ uptake of 99mTc, Kidney", "setting": "[2]; [4]", "result": "3.4 ± .5 % Injected Dose"}, {"measurement": "Organ uptake of 99mTc, Liver", "setting": "[2]; [4]", "result": "7.6 ± .9 % Injected Dose"}, {"measurement": "Organ uptake of 99mTc, Lung", "setting": "[2]; [4]", "result": ".3 ± .1 % Injected Dose"}, {"measurement": "Organ uptake of 99mTc, Stomach", "setting": "[2]; [4]", "result": ".1 ± .1 % Injected Dose"}, {"measurement": "Organ uptake of 99mTc, Tail", "setting": "[2]; [4]", "result": ".3 ± .1 % Injected Dose"}, {"measurement": "Organ uptake of 99mTc, Carcass", "setting": "[2]; [5]", "result": "18.3 ± 2.5", "unit": "% Injected Dose"}, {"measurement": "Organ uptake of 99mTc, Intestines", "setting": "[2]; [5]", "result": "16.9 ± 1.4", "unit": "% Injected Dose"}, {"measurement": "Organ uptake of 99mTc, Kidney", "setting": "[2]; [5]", "result": "3.9 ± .6 % Injected Dose"}, {"measurement": "Organ uptake of 99mTc, Liver", "setting": "[2]; [5]", "result": "10.2 ± 1.6", "unit": "% Injected Dose"}, {"measurement": "Organ uptake of 99mTc, Lung", "setting": "[2]; [5]", "result": ".5 ± .3 % Injected Dose"}, {"measurement": "Organ uptake of 99mTc, Stomach", "setting": "[2]; [5]", "result": ".8 ± .9 % Injected Dose"}, {"measurement": "Organ uptake of 99mTc, Tail", "setting": "[2]; [5]", "result": "1.1 ± .4 % Injected Dose"}, {"measurement": "Kidney uptake", "setting": "[2]; mice, sacrifice times greater than 15 minutes post injection", "result": "little kidney uptake"}, {"measurement": "Clearance of 99mTc activity out of the body", "setting": "[2]; mice, within the first 15 minutes", "result": "fast clearance out of the body within the first 15 minutes"}, {"measurement": "Suggested route of 99mTc clearance", "setting": "[2]; test animals, indirect evidence", "result": "possible kidney clearance"}]}
